Laboratory results published in patent US20090269796A1, “METHODS OF DETECTING AND TREATING MYOCARDIAL ISCHEMIA AND MYOCARDIAL INFARCTION” (THE GENERAL HOSPITAL CORPORATION, priority 2007, published 2009).

Tests used:
[1] = Simultaneous coronary sinus and peripheral plasma sampling after planned MI (13-patient subgroup), LC-MS/MS profiling; type: in vivo, human; details: elevated earlier in coronary sinus, FIG. 4 top panel
Method: Blood was drawn at baseline (just prior to the onset of the ablation) and at minutes, 1 hour, 2 hours, 4 hours and 24 hours following the onset of injury as depicted in FIG. 1. 13 of the 36 patients consented to the placement of a coronary sinus catheter during the ablation, allowing for the simultaneous sampling from coronary sinus and femoral catheters at the baseline, 10-minute and 1-hour time points. The coronary sinus catheter was subsequently removed prior to the patient leaving the catheterization suite.
Samples were obtained from femoral venous catheters during the procedure or, where indicated, from a catheter placed in the coronary sinus. Samples were collected in K2EDTA-treated tubes (Becton Dickinson). All blood samples were centrifuged at 2000×g for 10 minutes to pellet cellular elements. The supernatant plasma was then aliquoted and immediately frozen at −80° C. to minimize freeze-thaw degradation. Additional blood samples were sent to the clinical chemistry laboratory for evaluation of the standard cardiac markers creatine kinase (CK), CK-MB, and Troponin T (Roche Diagnostics).
The specificity of the findings described above was further examined by exploring the anatomic origin of the metabolic changes. […]

[2] = tested on: Neonatal rat cardiomyocytes; assay: Hypoxia-induced apoptosis (annexin V) of cardiomyocytes pretreated with individual metabolites; type: cell-based; details: metabolite added 5 minutes before 3 hours hypoxia; lowest concentration screened; annexin V-positive cells; FIG. 6
Method: Neonatal rat cardiomyocytes were treated with individual metabolites previously identified using planned MI metabolomics. In the first, metabolites that are increased in the peripheral blood and/or the coronary sinus samples were prioritized. Neonatal cardiomyocytes were isolated from 1-day old rats, cultured for three days, and then challenged in a hypoxia chamber (<0.5% O2, 95% nitrogen and 5% CO2 at 37° C.) for 3 hours, as previously described.^18 Baseline apoptosis is typically ˜10%, which increases to ˜30% following hypoxic challenge, as assessed by FITC-conjugated annexin V staining. Metabolites at the indicated concentrations were added to experimental plates 5 minutes prior to the onset of hypoxia. Metabolites were examined at ˜2 fold reported blood concentrations (where available), as well as at one log increased concentration (see also Human Metabolomics Database, HMDB, at http://www.hmdb.ca). 30 minutes after reoxygenation, the number of annexin V-positive cells per five HPF was counted from n=3 culture plates. The data depicted represent the percent change in apoptosis relative to the hypoxia control for the lowest concentration of each metabolite screened. (*P<0.05 by unpaired student's t test). […] Accordingly, one would seek to inhibit the metabolite in question as part of treatment or prevention scheme.
Accordingly, one would seek to administer the metabolite in question as part of treatment or prevention scheme. Such metabolites include, according to FIG. 6, G3P, inosine, malonic acid, TMNO, and orotic acid. Alternatively, one could administer a compound that upregulates a pathway that results in the production of the metabolite in question.

[3] = Metabolite changes in peripheral plasma after planned MI (alcohol septal ablation), LC-MS/MS profiling; type: in vivo, human; details: FIG. 3, lower panel
Source text: A total of 36 patients undergoing planned MI using alcohol septal ablation for the treatment of symptomatic hypertrophic obstructive cardiomyopathy (HOCM) were included. Inclusion criteria for the cohort were: 1) primary HOCM; 2) septal thickness of 16 mm or greater; 3) resting outflow tract gradient of greater than 30 mmHg, or an inducible outflow tract gradient of at least 50 mm Hg; 4) symptoms refractory to optimal medical therapy; and 5) appropriate coronary anatomy. The most proximal accessible septal branch was instrumented using standard angioplasty guiding catheters and guidewires and 1.5 or 2.0 mm×9 mm Maverick™ balloon catheters. Radiographic and echocardiographic contrast injections confirmed proper selection of the septal branch and balloon catheter position. Ethanol was infused through the balloon catheter at 1 ml per minute. Additional injections in the same or other septal branches were administered as needed, causing cessation of blood flow to the isolated myocardium, and to reduce the gradient to <20 mmHg.^16 […]
The three HPLC columns were connected in parallel via an automated switching valve on a robotic sample loader (Leap Technologies) to a triple quadrupole mass spectrometer (AB4000Q, Applied Biosystem/Sciex), operated in electrospray ionization mode using a turbo ion spray LC/MS interface. […] A total of 210 known metabolites were monitored for each sample. […]

| Structure (SMILES) | Time after injury until elevation evident in the periphery [1] [min] | Mean % change in apoptosis vs. hypoxia control [2] | Kinetic pattern of change in peripheral plasma after planned MI [3] |
| --- | --- | --- | --- |
| O=P(O)(O)OCC(O)CO (stereo not drawn) [Glycerol-3-P, glycerol-3-phosphate] | 120 | reduces cell death |  |
| O=c1[nH]cnc2nc[nH]c12 [Hypoxanthine] |  | potentiates cell death |  |
| OC[C@H]1O[C@@H](n2cnc3c(O)ncnc32)[C@H](O)[C@@H]1O [Inosine] |  | reduces cell death |  |
| O=C(O)CC(O)C(=O)O (stereo not drawn) [Malic Acid] | 120 |  |  |
| O=C(O)CC(=O)O [Malonic Acid] |  | reduces cell death |  |
| O=C(O)c1cc(=O)[nH]c(=O)[nH]1 [Orotic Acid] |  | reduces cell death |  |
| O=C(O)CCC(=O)O [Succinic Acid] |  | potentiates cell death |  |
| NCCS(=O)(=O)O [Taurine] |  | potentiates cell death |  |
| C[N+](C)(C)[O-] [Trimethylamine-N-Oxide] |  | reduces cell death |  |
| Nc1ccccc1C(=O)O [anthanilic acid] |  |  | Later-appearing |
| CN(CC(=O)O)C(=N)N [creatine] |  |  | Later-appearing |
